In patent US9732061B2, “Cinnoline derivatives useful as CB-1 receptor inverse agonists” (Janssen Pharmaceutica NV, priority 2015, dated 2017):

Key:
[1] = target: Human CB1R (Cannabanoid receptor 1) (Homo sapiens (Human), UniProt P21554); test: CB-1 in vitro cAMP (HTRF) assay; type: cell-based; conditions: HEK-293 cells stably transfected with human CB1R, 250 nM Forskolin, mean where tested more than once
Text: (§1) CB1 and CB2 receptors are Gi-coupled GPCR. Activation of CB1 and CB2 receptors results in a decrease in cAMP production. An inverse agonist of the CB1 or CB2 receptor results in the opposite effect, an increase of cAMP production. The principle of this assay is based on HTRF® technology (Homogeneous Time-Resolved Fluorescence). The method is a competitive immunoassay between native cAMP produced by cells and the cAMP labeled with the fluorophore d2. The tracer binding is quantified by a Mab anti-cAMP labeled with Eu3+TBP-NHS Cryptate (supplied as part of the assay kit). The specific signal (i.e. energy transfer) is inversely proportional to the concentration of cAMP in the standard or sample.
(§2) Biological Example 1: CB-1 and CB-2 In Vitro Assay
(§3) Human CB1R (Cannabanoid receptor 1) was stably transfected in HEK-293 cells (DiscoveRx, cat: 93-0200C1). Human CB2R (Cannabanoid receptor 2) was stably transfected in HEK-293 cells (DiscoveRx, cat: 93-0201C1). Cell cultures were maintained in media: DMEM (Invitrogen Cat#12430-054) supplemented with 10% HI FBS (Invitrogen Cat#16140-071), 1% L-glutamine (Invitrogen Cat#25030-081), 0.2 mg/ml Hygromycin B (Invitrogen Cat#10687-010), 600 μg/mL G418 (Invitrogen Cat#10131-035), and 1×Penn/Strep (Invitrogen 15140-122). After cell expansion, aliquots were cryo-stored in media containing 5% DMSO (Pierce Cat#20684).
(§4) One day prior to experiments media was warmed to 37° C. and the cryo-stored cells were thawed in a 37° C. water bath. The cells were then added to media (10× volume) and the mixture was centrifugated at 1000 RPM for 5 min. The supernate was removed and the cells were re-suspended in media. A sample of the cell suspension was evaluated on a Cedex XS automated cell counter (Innovatis Systems) to determine viable cells/ml. Additional media was added to the cells to achieve a final cell density of 4E5 cells/mL. The cells were then plated into 384 well PDL white solid bottom plates (Greiner, Cat#781945) at 20 μL per well using a Multidrop (Thermo Scientific). Cells were removed from Row P (location of cAMP standards). Two columns of cells were plated into a clear bottom 384 well PDL coated plate (Greiner, Cat#781944) to view confluence the day of the assay. The cell plates were lidded and stored for 15 minutes in a hood, then transferred to an incubator (37° C., 5% CO2, 95% humidity) overnight.
(§5) DMSO was added to all wells of 384 well V bottom polystyrene plate (Greiner, Cat#781280) except to columns 1 and 13, rows O and P and wells M13-M23 and N13-N23. Test compounds (60 μL, 10 mM) were added to Column 1 and 13 (A1 through N1 and A13 through L13). Test compounds were serially diluted 1/3 by transferring and mixing 20 μl sample with 40 μL DMSO.
(§6) DMSO (40 μL) was added to wells of 384 well V bottom polystyrene plate: O2 through O11, M14 through M23, N14 through N23, and O14 through O23. AM630 (also known as [6-iodo-2-methyl-1-[2-(4-morpholinyl)ethyl]-1H-indol-3-yl](4-methoxyphenyl)-methanone, Cayman Chemical, Cat#10006974) (60 μL, 10 mM) was added to O1; and 1-(2,4-dichlorophenyl)-7-[(4-fluorophenyl)methylene]-4,5,6,7-tetrahydro-N-1-piperidinyl-1H-indazole-3-carboxamide (60 μL, 10 mM) was added to N13. The control was serially diluted 1/3 by transferring and mixing 20 μl sample with 40 μL DMSO. This process resulted 11 doses per control, 10 mM to […].
(§7) Cells plated the day prior to the assay in clear bottom plates were viewed on an inverse microscope to ensure confluency in the range of 60-75%. […]

[2] = target: Human CB2R (Cannabanoid receptor 2) (Homo sapiens (Human), UniProt P34972); test: CB-2 in vitro cAMP (HTRF) assay; type: cell-based; conditions: HEK-293 cells stably transfected with human CB2R, 250 nM Forskolin, mean where tested more than once
Text: as §1, §2, §3, §4, §5, §6, §7

Sequence of Human CB1R (Cannabanoid receptor 1) (P21554 whole entry): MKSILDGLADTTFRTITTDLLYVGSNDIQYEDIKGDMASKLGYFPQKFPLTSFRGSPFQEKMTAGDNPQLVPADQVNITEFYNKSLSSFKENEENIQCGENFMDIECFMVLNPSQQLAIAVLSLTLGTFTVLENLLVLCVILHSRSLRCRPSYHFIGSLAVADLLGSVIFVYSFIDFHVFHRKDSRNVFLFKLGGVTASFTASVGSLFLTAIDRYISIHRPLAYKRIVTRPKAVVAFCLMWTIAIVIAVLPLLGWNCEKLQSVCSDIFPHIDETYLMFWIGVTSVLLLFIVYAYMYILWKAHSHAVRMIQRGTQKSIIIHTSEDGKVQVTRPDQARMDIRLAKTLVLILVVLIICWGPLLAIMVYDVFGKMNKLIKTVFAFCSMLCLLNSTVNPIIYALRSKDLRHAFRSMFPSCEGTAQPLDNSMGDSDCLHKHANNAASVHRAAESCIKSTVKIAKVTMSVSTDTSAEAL
Sequence of Human CB2R (Cannabanoid receptor 2) (P34972 whole entry): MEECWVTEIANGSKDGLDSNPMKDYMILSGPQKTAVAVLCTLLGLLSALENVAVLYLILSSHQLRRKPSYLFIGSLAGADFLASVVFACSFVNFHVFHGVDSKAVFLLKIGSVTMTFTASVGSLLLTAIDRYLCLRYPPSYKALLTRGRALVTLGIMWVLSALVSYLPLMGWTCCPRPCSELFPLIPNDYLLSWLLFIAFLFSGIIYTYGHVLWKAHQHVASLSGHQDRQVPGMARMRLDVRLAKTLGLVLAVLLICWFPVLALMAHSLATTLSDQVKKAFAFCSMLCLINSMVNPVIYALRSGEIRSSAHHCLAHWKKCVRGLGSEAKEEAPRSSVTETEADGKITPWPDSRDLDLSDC

Row | Compound | EC50 [1] [nM] | EC50 [2] [nM]
1 | O=S(=O)(N1CCC(Nc2cnnc3ccc(C(O)(c4ccc(Cl)cc4)c4ccc(Cl)cc4)cc23)CC1)C(F)(F)F [Compound 1, bis(4-chlorophenyl)(4-((1-((trifluoromethyl)sulfonyl)piperidin-4-yl)amino)cinnolin-6-yl)methanol] | 455 | > 10000
2 | CC(C)(C)OC(=O)N1CCC(Nc2cnnc3ccc(C(O)(c4ccc(Cl)cc4)c4ccc(Cl)cc4)cc23)CC1 [Compound 2, tert-butyl 4-((6-(bis(4-chlorophenyl)(hydroxy)methyl)cinnolin-4-yl)amino)piperidine-1-carboxylate] | 200 | > 10000
3 | O=C(c1ccccc1)N1CCC(Nc2cnnc3ccc(C(c4ccc(Cl)cc4)c4ccc(Cl)cc4)cc23)CC1 [Compound 3, (4-((6-(bis(4-chlorophenyl)methyl)cinnolin-4-yl)amino)piperidin-1-yl)(phenyl)methanone] | 463 | > 10000
4 | O=S(=O)(c1ccccc1)N1CCC(Nc2cnnc3ccc(C(c4ccc(Cl)cc4)c4ccc(Cl)cc4)cc23)CC1 [Compound 4, 6-(bis(4-chlorophenyl)methyl)-N-(1-(phenylsulfonyl)piperidin-4-yl)cinnolin-4-amine] | 35 | > 10000
5 | O=S(=O)(N1CCC(Nc2cnnc3ccc(C(c4ccc(Cl)cc4)c4ccc(Cl)cc4)cc23)CC1)C(F)(F)F [Compound 5, 6-(bis(4-chlorophenyl)methyl)-N-(1-((trifluoromethyl)sulfonyl)piperidin-4-yl)cinnolin-4-amine] | 13 | 3350
6 | OC(c1ccc(Cl)cc1)(c1ccc(Cl)cc1)c1ccc2nncc(NCc3cccc(C(F)(F)F)c3)c2c1 [Compound 6, bis(4-chlorophenyl)(4-((3-(trifluoromethyl)benzyl)amino)cinnolin-6-yl)methanol] | 254 | > 10000
7 | OC(c1ccc(Cl)cc1)(c1ccc(Cl)cc1)c1ccc2nncc(NCc3ccc(C(F)(F)F)cc3)c2c1 [Compound 7, bis(4-chlorophenyl)(4-((4-(trifluoromethyl)benzyl)amino)cinnolin-6-yl)methanol] | 219 | > 10000
8 | FC(F)(F)c1cccc(CNc2cnnc3ccc(C(c4ccc(Cl)cc4)c4ccc(Cl)cc4)cc23)c1 [Compound 8, 6-(bis(4-chlorophenyl)methyl)-N-(3-(trifluoromethyl)benzyl)cinnolin-4-amine] | 12 | > 10000
9 | FC(F)(F)c1ccc(CNc2cnnc3ccc(C(c4ccc(Cl)cc4)c4ccc(Cl)cc4)cc23)cc1 [Compound 9, 6-(bis(4-chlorophenyl)methyl)-N-(4-(trifluoromethyl)benzyl)cinnolin-4-amine] | 40 | > 10000
10 | O=C(O)c1ccc(S(=O)(=O)N2CCC(Nc3cnnc4ccc(C(c5ccc(Cl)cc5)c5ccc(Cl)cc5)cc34)CC2)cc1 [Compound 10, 4-(4-(6-(bis(4-chlorophenyl)methyl)cinnolin-4-ylamino)piperidin-1-ylsulfonyl)benzoic acid] | 302 | 1480
11 | O=C(O)c1cccc(S(=O)(=O)N2CCC(Nc3cnnc4ccc(C(c5ccc(Cl)cc5)c5ccc(Cl)cc5)cc34)CC2)c1 [Compound 11, 3-(4-(6-(bis(4-chlorophenyl)methyl)cinnolin-4-ylamino)piperidin-1-ylsulfonyl)benzoic acid] | 181 | 5250
12 | O=C(O)c1cccc(CN2CCC(Nc3cnnc4ccc(C(c5ccc(Cl)cc5)c5ccc(Cl)cc5)cc34)CC2)c1 [Compound 12, 3-[[4-([6-[bis(4-chlorophenyl)methyl]cinnolin-4-yl]amino)piperidin-1-yl]methyl]benzoic acid] | 302 | 6500
13 | O=C(O)c1ccc(CN2CCC(Nc3cnnc4ccc(C(c5ccc(Cl)cc5)c5ccc(Cl)cc5)cc34)CC2)cc1 [Compound 13, 4-((4-(6-(bis(4-chlorophenyl)methyl)cinnolin-4-ylamino)piperidin-1-yl)methyl)benzoic acid] | 1440 | > 10000
14 | O=C(O)c1ccc(S(=O)(=O)N2CCC(Nc3cnnc4ccc(C(c5ccc(Cl)cc5)c5ccc(Cl)cc5)cc34)CC2)o1 [Compound 14, 5-(4-(6-(bis(4-chlorophenyl)methyl)cinnolin-4-ylamino)piperidin-1-ylsulfonyl)furan-2-carboxylic acid] | 1280 | 5600
15 | O=C(O)c1ccc(CN2CCC(Nc3cnnc4ccc(C(c5ccc(Cl)cc5)c5ccc(Cl)cc5)cc34)CC2)s1 [Compound 15, 5-((4-(6-(bis(4-chlorophenyl)methyl)cinnolin-4-ylamino)piperidin-1-yl)methyl)thiophene-2-carboxylic acid] | 399 | 3690
16 | O=C(O)c1ccc(S(=O)(=O)N2CCC(Nc3cnnc4ccc(C(c5ccc(Cl)cc5)c5ccc(Cl)cc5)cc34)CC2)s1 [Compound 16, 5-(4-(6-(bis(4-chlorophenyl)methyl)cinnolin-4-ylamino)piperidin-1-ylsulfonyl)thiophene-2-carboxylic acid] | 262 | 2140
17 | O=C(O)c1ccc(N2CCC(Nc3cnnc4ccc(C(c5ccc(Cl)cc5)c5ccc(Cl)cc5)cc34)CC2)cc1 [Compound 17, 4-(4-(6-(bis(4-chlorophenyl)methyl)cinnolin-4-ylamino)piperidin-1-yl)benzoic acid] | 10100 | 8100
18 | O=C(O)c1ccccc1CN1CCC(Nc2cnnc3ccc(C(c4ccc(Cl)cc4)c4ccc(Cl)cc4)cc23)CC1 [Compound 18, 2-((4-(6-(bis(4-chlorophenyl)methyl)cinnolin-4-ylamino)piperidin-1-yl)methyl)benzoic acid] | 9500 | 9900
19 | O=C(O)c1ccccc1S(=O)(=O)N1CCC(Nc2cnnc3ccc(C(c4ccc(Cl)cc4)c4ccc(Cl)cc4)cc23)CC1 [Compound 19, 2-(4-(6-(bis(4-chlorophenyl)methyl)cinnolin-4-ylamino)piperidin-1-ylsulfonyl)benzoic acid] | 5940 | > 10000
20 | COc1ccc(CNc2cnnc3ccc(C(c4ccc(Cl)cc4)c4ccc(Cl)cc4)cc23)cc1 [Compound 20, 6-(bis(4-chlorophenyl)methyl)-N-(4-methoxybenzyl)cinnolin-4-amine] | 196 | 3580
21 | Oc1ccc(CNc2cnnc3ccc(C(c4ccc(Cl)cc4)c4ccc(Cl)cc4)cc23)cc1 [Compound 21, 4-((6-(bis(4-chlorophenyl)methyl)cinnolin-4-ylamino)methyl)phenol] | 1160 | 5930
22 | Clc1ccc(C(c2ccc(Cl)cc2)c2ccc3nncc(N4CCN(Cc5ccccc5)CC4)c3c2)cc1 [Compound 22, 4-(4-benzylpiperazin-1-yl)-6-(bis(4-chlorophenyl)methyl)cinnoline] | 6540 | > 10000
23 | O=C(O)c1cccc(CCN2CCC(Nc3cnnc4ccc(C(c5ccc(Cl)cc5)c5ccc(Cl)cc5)cc34)CC2)c1 [Compound 23, 3-[2-[4-([6-[bis(4-chlorophenyl)methyl]cinnolin-4-yl]amino)piperidin-1-yl]ethyl]benzoic acid] | 5090 | > 10000
24 | O=S(=O)(N1CCN(c2cnnc3ccc(C(c4ccc(Cl)cc4)c4ccc(Cl)cc4)cc23)CC1)C(F)(F)F [Compound 24, 6-[bis(4-chlorophenyl)methyl]-4-[4-(trifluoromethane)sulfonylpiperazin-1-yl]cinnoline] | 261 | > 10000
